Results: the supplement of paper PMC10307832

Columns and labels:
Experiment in all cases: relative viability (nuclei count vs DMSO), 5 days (fraction); higher = more cells survive
[1] = compound: C/C(=N\NC(=S)N1CCC1)/C2=CC=CC=N2 + COc1cc2c(Oc3ccc(NC(=O)C4(C(=O)Nc5ccc(F)cc5)CC4)cc3F)ccnc2cc1OCCCN1CCOCC1 [Foretinib] (partner 0.25 µM)
In short: (§1)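 Relative viability equals treated-well nuclei counts divided by vehicle-well nuclei counts. Counts came from 4× images of lung cancer cell lines grown in 1536-well plates for 5 days after pin-tool dosing on the day after seeding. Dosing used one drug alone or a fixed anchor-drug dose plus five library-drug doses (not always all listed) in √10 steps, and values are medians of duplicate plates.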

[2] = compound: C/C(=N\NC(=S)N1CCC1)/C2=CC=CC=N2 + NC(=O)Nc1cc(-c2cccc(F)c2)sc1C(=O)N[C@H]1CCCNC1 [AZD7762] (partner 0.2 µM)
In short: as §1

[3] = compound: C/C(=N\NC(=S)N1CCC1)/C2=CC=CC=N2 + O=C(CCCCCCC(=O)Nc1ccccc1)NO [Vorinostat] (partner 1 µM)
In short: as §1

[4] = compound: C/C(=N\NC(=S)N1CCC1)/C2=CC=CC=N2 + CS(=O)(=O)N1CCN(Cc2cc3nc(-c4cccc5[nH]ncc45)nc(N4CCOCC4)c3s2)CC1 [Pictilisib] (partner 1 µM)
In short: as §1

| Cell Line | relative viability ([1]; first compound 0.05 µM) | relative viability ([1]; first compound 0.1581 µM) | relative viability ([1]; first compound 0.5 µM) | relative viability ([1]; first compound 1.581 µM) | relative viability ([1]; first compound 5 µM) | relative viability ([2]; first compound 0.05 µM) | relative viability ([2]; first compound 0.1581 µM) | relative viability ([2]; first compound 0.5 µM) | relative viability ([2]; first compound 1.581 µM) | relative viability ([2]; first compound 5 µM) | relative viability ([3]; first compound 0.05 µM) | relative viability ([3]; first compound 0.1581 µM) | relative viability ([3]; first compound 0.5 µM) | relative viability ([3]; first compound 1.581 µM) | relative viability ([3]; first compound 5 µM) | relative viability ([4]; first compound 0.05 µM) | relative viability ([4]; first compound 0.1581 µM) | relative viability ([4]; first compound 0.5 µM) | relative viability ([4]; first compound 1.581 µM) | relative viability ([4]; first compound 5 µM) |
| --- | --- | --- | --- | --- | --- | --- | --- | --- | --- | --- | --- | --- | --- | --- | --- | --- | --- | --- | --- | --- |
| NCI-H1975 | 0.137 | 0.143 | 0.129 | 0.124 | 0.124 | 0.308 | 0.239 | 0.225 | 0.234 | 0.24 | 0.173 | 0.167 | 0.136 | 0.154 | 0.167 | 0.123 | 0.136 | 0.127 | 0.131 | 0.136 |
| NCI-H1437 | 0.242 | 0.261 | 0.229 | 0.192 | 0.162 | 0.353 | 0.278 | 0.243 | 0.239 | 0.176 | 0.32 | 0.334 | 0.251 | 0.218 | 0.188 | 0.0885 | 0.101 | 0.0858 | 0.0683 | 0.0721 |
| NCI-H1651 | 0.136 | 0.142 | 0.127 | 0.0965 | 0.107 | 0.0886 | 0.101 | 0.0929 | 0.0496 | 0.0554 | 0.116 | 0.116 | 0.109 | 0.0595 | 0.0665 | 0.0849 | 0.0897 | 0.0884 | 0.0807 | 0.0572 |
| LCLC-103H | 0.176 | 0.311 | 0.221 | 0.133 | 0.167 | 0.272 | 0.219 | 0.27 | 0.185 | 0.262 | 0.344 | 0.321 | 0.286 | 0.254 | 0.296 | 0.269 | 0.254 | 0.266 | 0.234 | 0.265 |
| NCI-H1666 | 0.439 | 0.365 | 0.345 | 0.348 | 0.331 | 0.304 | 0.398 | 0.352 | 0.3 | 0.331 | 0.575 | 0.579 | 0.538 | 0.501 | 0.494 | 0.158 | 0.22 | 0.234 | 0.176 | 0.2 |
| NCI-H1734 | 0.166 | 0.162 | 0.203 | 0.129 | 0.102 | 0.124 | 0.128 | 0.139 | 0.0896 | 0.101 | 0.169 | 0.174 | 0.145 | 0.12 | 0.124 | 0.15 | 0.151 | 0.149 | 0.115 | 0.139 |
| EPLC-272H | 0.0785 | 0.069 | 0.1 | 0.0473 | 0.0779 | 0.106 | 0.104 | 0.106 | 0.0639 | 0.114 | 0.0931 | 0.159 | 0.149 | 0.0509 | 0.107 | 0.159 | 0.159 | 0.149 | 0.12 | 0.138 |
| BEN | 0.17 | 0.204 | 0.175 | 0.171 | 0.205 | 0.265 | 0.339 | 0.288 | 0.238 | 0.279 | 0.233 | 0.293 | 0.296 | 0.281 | 0.3 | 0.164 | 0.162 | 0.156 | 0.186 | 0.176 |
| ABC-1 | 0.13 | 0.243 | 0.197 | 0.207 | 0.208 | 0.282 | 0.342 | 0.341 | 0.288 | 0.305 | 0.268 | 0.339 | 0.308 | 0.275 | 0.302 | 0.305 | 0.334 | 0.24 | 0.222 | 0.269 |
| HCC-15 | 0.131 | 0.0633 | 0.115 | 0.0865 | 0.0901 | 0.084 | 0.084 | 0.105 | 0.113 | 0.103 | 0.204 | 0.275 | 0.145 | 0.139 | 0.116 | 0.0704 | 0.087 | 0.104 | 0.0822 | 0.0856 |
| NCI-H2170 | 0.871 | 0.341 | 0.312 | 0.199 | 0.203 | 0.298 | 0.178 | 0.153 | 0.126 | 0.1 | 0.267 | 0.195 | 0.161 | 0.155 | 0.0916 | 0.158 | 0.188 | 0.178 | 0.192 | 0.167 |
| PC-3 [JPC-3] | 0.518 | 0.525 | 0.349 | 0.259 | 0.242 | 0.317 | 0.384 | 0.307 | 0.243 | 0.234 | 0.338 | 0.436 | 0.357 | 0.269 | 0.196 | 0.278 | 0.319 | 0.31 | 0.279 | 0.221 |
| NCI-H1993 | 0.542 | 0.516 | 0.567 | 0.631 | 0.526 | 0.302 | 0.372 | 0.387 | 0.373 | 0.317 | 0.337 | 0.539 | 0.319 | 0.338 | 0.446 | 0.743 | 0.673 | 0.765 | 0.676 | 0.692 |
| NCI-H358 | 0.0918 | 0.107 | 0.0747 | 0.0879 | 0.107 | 0.174 | 0.217 | 0.16 | 0.15 | 0.18 | 0.0785 | 0.0651 | 0.0611 | 0.0639 | 0.0677 | 0.178 | 0.214 | 0.19 | 0.142 | 0.163 |
| NCI-H1915 | 0.366 | 0.675 | 0.216 | 0.192 | 0.173 | 0.16 | 0.114 | 0.134 | 0.119 | 0.122 | 0.108 | 0.0989 | 0.117 | 0.11 | 0.118 | 0.208 | 0.189 | 0.17 | 0.144 | 0.153 |
| RERF-LC-KJ | 0.292 | 0.261 | 0.297 | 0.28 | 0.259 | 0.176 | 0.238 | 0.18 | 0.16 | 0.208 | 0.214 | 0.207 | 0.19 | 0.21 | 0.208 | 0.19 | 0.17 | 0.173 | 0.18 | 0.191 |
| LOU-NH91 | 0.519 | 0.447 | 0.507 | 0.469 | 0.375 | 0.46 | 0.548 | 0.479 | 0.294 | 0.428 | 0.577 | 0.588 | 0.566 | 0.388 | 0.374 | 0.367 | 0.428 | 0.439 | 0.374 | 0.356 |
